Test results published in patent publication US20060258639A1, “Therapeutic combinations for the treatment or prevention of psychotic disorders” (Wyeth, priority 2005, published 2006).

Key:
Type in all cases: in vivo
[1] = tested on: apomorphine-induced climbing; assay: apomorphine-induced climbing in mice, Compound 1 alone or with haloperidol (Experiment 1); details: for ED50: Mus musculus, sc, apomorphine 1 mg/kg s.c., read-out: ED50 for apomorphine block
Description: (§1) Using (7-(2,6-dichlorophenyl)-5-fluoro-2,3-dihydrobenzofuran-2-yl)methanamine (Compound 1) as an example, the present Example describes two experiments in which a compound of formula I, was administered in combination with either a typical (exemplified by haloperidol) or atypical (exemplified by clozapine). The combination reduced apomorphine-induced climbing without side effects.
(§2) Mice were acclimated to the climbing cages for at least 1 hour and then dosed with either the vehicle or a dose of haloperidol or clozapine followed by a dose of either vehicle or a dose of Compound 1. Thirty minutes after dosing all mice received 1 mg/kg s.c. apomorphine and returned to the climbing cages. Five minutes after apomorphine the mice were observed and scored for climbing and stereotypy every 5 minutes for the 30 minute test session.

[2] = tested on: apomorphine-induced climbing; assay: apomorphine-induced climbing in mice, Compound 1 alone or with clozapine (Experiment 2); details: for ED50: Mus musculus, sc, apomorphine 1 mg/kg s.c., read-out: ED50 for apomorphine block
Description: as §1, §2

[3] = tested on: catalepsy induced by haloperidol; assay: catalepsy (bar test), extra-pyramidal side effect liability, Compound 1 with haloperidol; details: Compound 1 3 mg/kg with haloperidol 0.1 & 0.17 mg/kg; 30, 60, 90 and 120 minutes after dosing; mice
Description: Using (7-(2,6-dichlorophenyl)-5-fluoro-2,3-dihydrobenzofuran-2-yl)methanamine (Compound 1) as an example, the present Example describes an experiment in which a compound of formula I was administered in combination with haloperidol to assess extra-pyramidal side effect liability, as represented by cataleptic behavior. [table] Mice were dosed with either the vehicle or a dose of haloperidol followed by a dose of either vehicle or a dose of Compound 1. Thirty, 60, 90 and 120 minutes after dosing, the forelegs are draped over a thin horizontal rod 1.75″ high. The number of seconds up to 60 sec for which the mouse remains on the bar is recorded at each test point and presented as the percent of maximum possible response (60 sec).

[4] = Compound 1 0.3, 1 & 3 mg/kg co-administered with clozapine 3 & 5.4 mg/kg

## NCC1Cc2cc(F)cc(-c3c(Cl)cccc3Cl)c2O1 (centres unmarked) [Compound 1, (7-(2,6-dichlorophenyl)-5-fluoro-2,3-dihydrobenzofuran-2-yl)methanamine]
[1]; Compound 1 0.3, 1 & 3 mg/kg co-administered with haloperidol 0.17 mg/kg
  block of apomorphine induced climbing versus either compound alone: greater block of apomorphine induced climbing
[1]; Compound 1 0.3, 1 & 3 mg/kg co-administered with haloperidol 0.17 mg/kg, relative to haloperidol alone
  effect on stereotypy: no effect on stereotypy
[1]; Experiment 1, Compound 1 alone
  ED50: 1.81 mg/kg
[1]; Experiment 1, co-administered with 0.1 mg/kg of haloperidol
  ED50: 1.49 mg/kg
[1]; Experiment 1, co-administered with 0.17 mg/kg of haloperidol
  ED50: 0.534 mg/kg
[2]; [4]
  block of apomorphine induced climbing versus either compound alone: greater block of apomorphine induced climbing
  effect on stereotypy: no effect on stereotypy
[2]; Experiment 2, Compound 1 alone
  ED50: 7.15 mg/kg
[2]; Experiment 2, co-administered with 3 mg/kg of clozapine
  ED50: 2.48 mg/kg
[2]; Experiment 2, co-administered with 5.4 mg/kg of clozapine
  ED50: 1.67 mg/kg
[3]
  catalepsy, percent of maximum possible response (60 sec): up to 45 % of maximum catalepsy
